# From a melting point compilation (Tetko et al.; mined from patent text by program, amines drawn as free bases though some values may be those of a salt)
row,SMILES,melting point [°C]
1,Cc1ncsc1C(O)c1cccc(N)c1 (stereo unspecified),137 to 138
2,COc1ccc(C(=O)NC2CCCNC(=O)C2)cc1OC (stereo unspecified),190 to 191
3,NS(=O)(=O)c1nc2ccc(O)cc2s1,209
4,CC1(C)Oc2ccsc2C(NC(=O)c2ccc(C(F)(F)F)cc2)C1O (stereo unspecified),162 to 163
5,CC(C)n1nc(-c2c(Nc3ccccc3)nc(N)nc2-c2ccc(F)cc2)ccc1=O,> 250
6,C=CCC1(CC=C)c2cc(N(c3ccccc3)c3ccccc3)ccc2-c2ccc(N(c3ccccc3)c3ccccc3)cc21,179 to 183
7,CCOC(=O)C(O)CCn1cnc2c(=O)[nH]c(N)nc21 (stereo unspecified),161 to 163
8,COc1ccnc(CSc2nc3cc(OC(F)(F)C(F)F)ccc3[nH]2)c1OC,98 to 102
9,OC(c1ccc2c(c1)CCCN2)(C(F)(F)F)C(F)(F)F,115 to 116
10,CCc1cc(=O)c(C(=O)OC)c(CC)[nH]1,124 to 127
11,CCCCCCc1ccc2c3ccc(C=O)cc3n(C)c2c1,55 to 56
12,CCCCCCc1cc2c(cc1OCCCC(=O)O)C(=O)C(C)(C)C2,82
13,O=S1(=O)N=C(NCCCCc2ccccc2)Nc2cc(Cl)sc21,201 to 205
14,O=C1N=c2ccc(OCCN3CC=C(Cc4ccccc4)CC3)cc2=N1,202 to 203
15,Oc1ccc(-c2cccc(OC3SCC(O)C(O)C3O)c2)cn1 (stereo unspecified),200
16,CCOC(=O)Cc1c(-c2ccccc2)c2cc(CO)c(CO)cc2oc1=O,130 to 131
17,NCC1Cc2cc(-c3cccc(F)c3)cc(F)c2O1 (stereo unspecified),> 250
18,CCCNc1nc(N)cc(Cl)n1,92 to 94
19,CC(C)c1nc2c(s1)C(=O)N(c1cccc(C(F)(F)F)c1)C2=O,80
20,BrCc1nc(-c2ccccc2)nc2ccccc12,110
21,CCCN1NCc2c(C3C(=O)Nc4ccc(Br)cc43)ncnc21 (stereo unspecified),295 to 300
22,O=C1c2ccccc2C(c2ccc(Cl)cc2)(c2c(O)cc(O)cc2O)N1Cc1ccc([N+](=O)[O-])cc1 (stereo unspecified),196 to 198
23,COc1ccc2c(c1)CCN1C(=O)[C@H]3CCCN(S(C)(=O)=O)[C@H]3C[C@@H]21,138 to 140
24,O=C(Nc1ccc(C(=O)N2Cc3ccccc3Nc3ccccc32)c(Cl)c1)c1ccccc1-c1ccccc1,158 to 184
25,Cc1c(CC(C)(C)C(=O)O)n(Cc2ccc(Cl)cc2)c2ccc(OCc3ccc4ccccc4c3)cc12,152
26,O=[N+]([O-])c1ccc2c(c1)CCCCN2,73 to 75

row,SMILES,melting point [°C]
1,COc1cc2ncc(C(=O)O)c(Nc3cccc(Br)c3)c2cc1OC,282 to 285
2,O=C(O)COc1cc(Cl)ccc1C(=O)NCc1ccc2c(c1)OCO2,208 to 209
3,COC(=O)C(C)(C)CC(=O)c1ccc(-n2ccnc2)cc1,89 to 93
4,CNc1cc(Br)cc(Sc2ccc([N+](=O)[O-])cc2)c1,96 to 98
5,COc1nc2cc([N+](=O)[O-])c(C)c(C(=O)N(C)CC(=O)OC(C)(C)C)c2nc1OC,102 to 105
6,CCCCCCOc1ccc(NC(=O)Nc2ccccc2CCc2cc(C(C)(C)C)c(O)c(C(C)(C)C)c2)cc1,174 to 176
7,CCOC(=O)CNC(=O)n1nc(Oc2c(Cl)cc(C(F)(F)F)cc2Cl)cc1C,50 to 53
8,COC(=O)c1cnccc1C(=O)c1ccc(-n2ccnc2)cc1,135 to 137
9,O=C(O)COC(c1ccc(Cl)cc1)c1ccc(Cl)cc1,108 to 110
10,CC1=C(C(=O)Nc2cc(C(=O)OC(C)C)ccc2F)SCCO1,132 to 135
11,N#Cc1cnn2c1N(C(=O)CCl)CC=C2c1cccc(C(F)(F)F)c1,179 to 181
12,CCCn1ccnc1C(=O)Cc1ccc([N+](=O)[O-])cc1,95 to 96
13,CC1(C)CCC(C)(C)c2cc(C(=O)c3ccc(C(=O)O)cc3)c(OCc3ccccc3)cc21,212 to 213
14,COc1ccc(-c2nnn(-c3ccc(C(F)(F)F)cc3F)c2Cl)c(Cl)c1,95.8 to 97.5
15,OC1CCN(c2ncc3ncnc(Nc4ccc(F)c(Cl)c4)c3n2)CC1,243 to 246
16,CCCc1ccc(NC(=O)c2cccnc2NCc2ccncc2)cc1C(F)(F)F,147 to 149
17,CSc1c(F)ccc2onc(OCCNC(=O)OC(C)(C)C)c12,91 to 92
18,CC(=O)N1c2cscc2C(=O)N(C)c2ccccc21,197 to 199
19,COc1ccccc1-c1cn(-c2ccccc2)nc1O,165 to 167
20,O=C(O)CCc1cn(Cc2ccc(Cl)cc2Cl)c2ccccc12,134 to 136
21,O=C(CC1CCN(Cc2ccccc2)CC1)Nc1noc(C2CN3CCC2CC3)n1 (stereo unspecified),133 to 134
22,O=C(NO)[C@H]1CN(C(=O)Nc2ccccc2)CCN1S(=O)(=O)c1ccc(-c2ccc(F)cc2)s1,187 to 188
23,O=C(O)CCCCN1C(=O)c2cccc([N+](=O)[O-])c2C1=O,158 to 160
24,COc1cc(Oc2ccc(C(=O)N(C3CCCCC3)C3CCCC3)cc2C)cc(OC)c1OC,181 to 182
25,N#CCc1ccccc1CCNC(=O)c1ccc([N+](=O)[O-])cc1,119
26,O=C(O)c1nn(-c2ccccc2)c2c1C(N1CCOCC1)c1ccccc1-2 (stereo unspecified),244 to 245

row,SMILES,melting point [°C]
1,Cn1ccc(=O)c2cc(F)ccc21,88 to 89
2,CCOC(=O)c1ccc(COc2cccc(NC(C)=O)c2C=O)cc1,116 to 119
3,CCCCCCCCCCCCC(=O)c1cn(CCCC(=O)O)c2ccccc12,76 to 78
4,COc1cc(-c2ccc(O)c(C3(C)CCCCC3)c2)cc(CC2SC(N3CCCC3)=NC2=O)c1OC (stereo unspecified),227 to 230
5,CCc1[nH]c2cccc3c2c1CC1C3CC(NC(=O)N(CC)CC)CN1C (stereo unspecified),165 to 168
6,O=S(=O)(c1ccc(Br)cc1)N1CCC(CN2CCC(c3ccncc3)CC2)CC1,163 to 164
7,O=C(O)c1ncn2c1CN=C(c1ccccc1Br)c1cc(F)ccc1-2,280 to 285
8,Cn1ncc2[nH]c3cccc(F)c3c(=O)c21,> 300
9,COc1ccc(-n2nc(CCC#N)cc2-c2ccc(Cl)cc2)cc1,107 to 109
10,N#CCNC(=O)C1(NC(=O)c2ccc(Cn3ccnc3)cc2)CCCCC1,194 to 196
11,O=C(NC(=O)c1c(Cl)cccc1Cl)Nc1ccc(-c2ccc(Cl)cc2)nc1,225 to 229
12,CCCn1c(=O)c2[nH]c(C3CCCC3)nc2n(CCc2ccc(NC(=O)C(C)C)cc2)c1=O,> 270
13,CC(=O)OC1CCC2C3CCC4=CC(=O)C(I)CC4(C)C3CCC12C (stereo unspecified),92
14,CCOC(=O)c1cc(=O)c2ccc([N+](=O)[O-])c(C)c2o1,120
15,O=C(NCC1Cc2cccc(-c3c(Cl)cccc3Cl)c2O1)OCc1ccccc1 (stereo unspecified),198 to 200
16,CSc1ccc(-c2csc3ccc(-c4nnc(C)o4)cc23)cc1,198 to 199
17,CC(C)Sc1ccc(NC(=O)c2cc(Cl)ccc2NS(=O)(=O)c2ccc(Cl)cc2)cc1,168 to 169
18,CCn1ccccc1=S,50
19,CCN=C(N)N(CC)N=C(C=Cc1ccc(OC(F)F)cc1)C=Cc1ccc(OC(F)F)cc1,97 to 99
20,O=C(OCC(=O)c1ccccc1[N+](=O)[O-])c1ccccc1,77 to 80
21,O=C(NCc1cccnc1)c1ccnc(N2CCN(Cc3ccc(F)cc3)C2=O)c1,153 to 155
22,Nc1ncc(S(=O)(=O)Nc2ccc(Br)c3c(Cl)c[nH]c23)cn1,285 to 289
23,COC(=O)CCn1ncc(-c2ccccc2)c1-c1ccccc1,72 to 74
24,CCCO[C@@H](C)C(=O)Oc1ccc(-c2ccc(O)cc2)cc1,120
25,CCCC(=O)C1=C(O)CC(c2c(C)c(C)c(C)c3c2OCC3)CC1=O (stereo unspecified),140
26,CCOP(=O)(Cc1ccnc(C(N)=O)c1)OCC,140 to 142

row,SMILES,melting point [°C]
1,CC(C)c1ccc(C(F)(F)C(F)(F)c2ccccc2)cc1,97 to 104
2,O=c1c2c(Cl)cc(Cl)cc2[nH]c2c(O)nn(-c3ccccc3)c(=O)c12,361 to 363
3,CCCNC(C=Cc1ccccc1Cl)=NC#N,134 to 136
4,COC(=O)c1c(C(F)F)nc(C(F)(F)F)c(C(C#N)=C2OCCO2)c1CC(C)C,121 to 122
5,CCOC(=O)c1nc(-c2nccs2)cs1,143 to 145
6,Cn1nc(C#N)c2ccccc21,73
7,CCCCCCCCCCCCCCOCC(CC#N)(CC#N)COCCCCCCCCCCCCCC,33 to 35
8,CCc1nc2c(Cl)ncnc2n1C(C1CC1)C1CC1,99 to 100
9,CSc1ccc(C=C2C(C)=C(CC(=O)O)c3cc(F)c(F)cc32)cc1,181 to 182
10,CC1(C)CCCC2(C)CC12/C=C/C(=O)N1CCN(C(N)=O)CC1 (stereo unspecified),166 to 168
11,COc1ccc(C(=O)Nc2ccccc2)cc1Nc1cccc(C(F)(F)F)c1,183 to 184
12,Cc1cnccc1-c1sc(NC(=O)c2ccncc2)nc1-c1ccco1,156 to 157
13,Cc1ccc(-n2nc(C(C)(C)C)cc2NC(=O)c2cccc3cc(Oc4cc(Cl)ncn4)ccc23)cc1,163 to 164
14,CC1(O)CSC(=S)N1c1ccccn1 (stereo unspecified),120
15,CCCCc1oc2ccccc2c1-c1ncc(-c2ccc3cc(OCc4ccc(C(=O)OC)cc4)ccc3c2)o1,169 to 170
16,COc1ccc(Br)c2c1CN(Nc1ccncc1)CC2,172 to 173
17,COC(=O)C(C)Oc1ccc([N+](=O)[O-])cc1 (stereo unspecified),79 to 80
18,CC(=O)SC1CC(=O)N1C(Cl)C(=O)OCc1ccc([N+](=O)[O-])cc1 (stereo unspecified),72 to 73
19,CN1CC(c2cc3ccccc3o2)CC1=O (stereo unspecified),73
20,CC(C)(C)OC(=O)N1CCC(c2ncc(-c3cnc(-c4ccccc4)nc3)[nH]2)C1 (stereo unspecified),219
21,S=c1n(CN2CCCC2)nc(-c2ccncc2)n1-c1ccccc1,139
22,O=C1c2ccccc2C(=O)C1(O)c1cc(F)ccc1O,189 to 193
23,O=C(Nc1cc(CN2CCCCC2)c(O)c(CN2CCCCC2)c1)c1ccccc1,138 to 140
